Here are results for one molecule from patent publication US20060160174A1, “Modified l49-sfv exhibiting increased stability and methods of use thereof” (priority 2002, published 2006).

One may read the IC50 as the concentration at which inhibition is half-maximal.

This experiment relates to H3677 melanoma cells. The experiment is described as follows: in vitro cytotoxicity assay with prodrug C-Mel (alamarBlue). It is filed as cell-based. The settings on record: Homo sapiens. The protocol:
H3677 cells were plated into 96 well microtiter plates (5×10^3 cells/well in 100 μl of RPMI 1640 media (Invitrogen) with 10% fetal bovine serum) and allowed to adhere overnight. The cells were treated with FP95, FP990 or FP999 fusion (see Table 2) proteins at 10 nM. […] Melphalan was also added at the same concentrations to cells treated with medium alone. After 1 hour at 37° C. cells were washed three times with medium and incubated for 96 hours at 37° C. The cells were then incubated with 10% alamarBlue™ for 3 hours at 37° C. and excitation was measured in an ELISA plate reader at 570 nm.
The cells were treated with 10 nM L49-sFv-bL, unbound material was washed off and serial dilutions of C-Mel were added. C-Mel and the active drug, melphalan, were also applied to cells treated with media alone. Cell viability was measured using the redox indicator alamarBlue™.
A general note: Alamar Blue is a resazurin reagent that responds to reducing activity.

As for `N[C@@H](Cc1ccc(N(CCCl)CCCl)cc1)C(=O)O` [melphalan], the IC50 was roughly 5 µM.
